Measured values: patent US9605064B2, “Methods and compositions for treatment of skin disorders” (AbbVie Biotechnology Ltd, priority 2006, dated 2017)
Where “and” joins values, the source holds several entries; their conditions need not be identical. Identical values can stand only once. Marks after values point to notes of the source that are not given here.

Columns and labels:
[1] = test system: patients with moderate to severe chronic plaque psoriasis; assay: Physician's Global Assessment (PGA), Phase II trial with 48-week extension; format: in vivo, human; settings: for Percentage of Patients Achieving PGA “Clear” or “Almost Clear”: modified ITT, NRI; for PGA “Clear”/“Almost Clear”: after 60 weeks of 40 mg eow
From the text: Efficacy outcome measures included PASI and PGA.
The Physician's Global Assessment (PGA), which was used as a clinical endpoint in the trial, was used to determine the MCID for DLQI. The PGA is a seven point scale used to measure disease severity from a physician's evaluation. Scoring under the PGA ranges from 1 (Clear) to 7 (Severe). Categories for the 7-point scale include the following: • Severe: very marked plaque elevation, scaling and/or erythema; • Moderate to severe: marked plaque elevation, scaling and/or erythema; • Moderate: moderate plaque elevation, scaling and/or erythema; • Mild to moderate: intermediate between moderate and mild; • Mild: slight plaque elevation, scaling and/or erythema; • Almost clear: intermediate between mild and clear; and • Clear: no signs of psoriasis (post-inflammatory hypopigmentation or hyperpigmentation could be present). Scoring regions were from 1 (clear) to 7 (severe). PGA was assessed at screening; baseline; week 1; week 2; week 4; week 8; and week 12/early termination; and follow up. The same investigator performed the assessment for each patient throughout the study. Statistical methods were performed according to the following summary. Analyses were performed on blinded data, combining results from all three groups. Changes in the PGA from baseline to week 12 were correlated with changes in DLQI total score.
The PGA is a seven-point scale used to measure the severity of disease at the time of the physician's evaluation. The seven disease categories are: • Severe: very marked plaque elevation, scaling, and/or erythema • Moderate to Severe: marked plaque elevation, scaling, and/or erythema • Moderate: moderate plaque elevation, scaling, and/or erythema • Mild to moderate: intermediate between moderate and mild • Mild: slight plaque elevation, scaling, and/or erythema • Almost Clear: intermediate between mild and clear • Clear: no signs of psoriasis (post-inflammatory hypopigmentation or hyperpigmentation could be present).
The PGA scale is scored from 1 (Clear) to 7 (Severe). The PGA was assessed by the investigator at screening, baseline, and Weeks 1, 2, 4, 8, 12/Early Termination, and the follow-up visit. Each study site was to make every attempt to have the same investigator perform these assessments throughout the study for each patient.
The PGA is a 7-point scale used to measure disease severity from a physician's evaluation. The categories for the 7-point scale include: Severe: very marked plaque elevation, scaling, and/or erythema; Moderate to severe: marked plaque elevation, scaling, and/or erythema; Moderate: moderate plaque elevation, scaling, and/or erythema; Mild to moderate: intermediate between moderate and mild; Mild: slight plaque elevation, scaling, and/or erythema; Almost clear: intermediate between mild and clear; and Clear: no signs of psoriasis (post-inflammatory hypopigmentation or hyperpigmentation could be present). The scoring ranges are from 1 (Clear) to 7 (Severe). PGA was assessed at screening, baseline, Week 1, Week 2, Week 4, Week 8, Week 12/early termination, and follow-up. The same investigator performed this assessment for each patient throughout the study.

[2] = test system: patients with moderate to severe psoriasis; assay: Adverse events, open-label extension of REVEAL
Experimental: Laboratory parameters and adverse events were also recorded.

[3] = test system: patients with severe psoriasis who were non-responders to high-dosage etanercept; assay: PASI response, open-label adalimumab in non-responders to high-dosage etanercept; format: in vivo, human
Experimental: Details on clinical course and adverse events were recorded, along with measurements of PASI and Dermatology Life Quality Index (DLQI) at baseline and Weeks 2, 4, 8, and 12.
This was an open-label prospective evaluation of adalimumab (HUMIRA®, Abbott Laboratories, Abbott Park, Ill., USA). Patients who were non-responders to etanercept were recruited from the Severe Psoriasis Clinic at St John's Institute of Dermatology in London. […] Inclusion criteria included male and female patients more than 18 years of age with plaque psoriasis (Table 98). The study was approved by St Thomas' Research Ethics Committee, and informed consent was obtained from all participants.
The study period was 12 weeks. […] Patients were able to withdraw from the study at any stage. They were permitted to continue topical treatments at stable dosages throughout the study, but could not use concomitant systemic therapy for psoriasis.
At each clinical visit PASI, DLQI, and percentage body surface area (% BSA) affected were assessed and recorded. In addition, patients received medical assessments together with monitoring laboratory investigations (FIG. 11).
The secondary efficacy endpoint was PASI 75 response rate at Week 12.

Substance: Adalimumab: a human anti-TNF mAb, described in U.S. Pat. No. 6,090,382 as D2E7 (HUMIRA, Abbott Laboratories)
- Percentages of Patients with PGA “Clear” or “Almost Clear” ([1]; Week 12, 40 mg eow (Table 78)): 51%
- Percentages of Patients with PGA “Clear” or “Almost Clear” ([1]; Week 12, 40 mg weekly (Table 78)): 81%
- Percentage of Patients Achieving PGA “Clear” or “Almost Clear” ([1]; Week 12, adalimumab 40 mg eow): 49* %
- Percentage of Patients Achieving PGA “Clear” or “Almost Clear” ([1]; Week 12, adalimumab 40 mg weekly): 76* %
- Percentage of Patients Achieving PGA “Clear” or “Almost Clear” ([1]; Week 24, adalimumab 40 mg eow): 64%
- Percentage of Patients Achieving PGA “Clear” or “Almost Clear” ([1]; Week 24, adalimumab 40 mg weekly): 72%
- Percentage of Patients Achieving PGA “Clear” or “Almost Clear” ([1]; Week 24, placebo/adalimumab 40 mg eow (adalimumab from Week 12)): 45%
- Percentage of Patients Achieving PGA “Clear” or “Almost Clear” ([1]; Week 36, adalimumab 40 mg eow): 60%
- Percentage of Patients Achieving PGA “Clear” or “Almost Clear” ([1]; Week 36, adalimumab 40 mg weekly): 68%
- Percentage of Patients Achieving PGA “Clear” or “Almost Clear” ([1]; Week 36, placebo/adalimumab 40 mg eow (adalimumab from Week 12)): 51%
- Percentage of Patients Achieving PGA “Clear” or “Almost Clear” ([1]; Week 60, adalimumab 40 mg eow): 44%
- Percentage of Patients Achieving PGA “Clear” or “Almost Clear” ([1]; Week 60, adalimumab 40 mg weekly): 52%
- Percentage of Patients Achieving PGA “Clear” or “Almost Clear” ([1]; Week 60, placebo/adalimumab 40 mg eow (adalimumab from Week 12)): 45%
- PGA “Clear” or “Almost Clear” ([1]; baseline PASI ≧10 and DLQI >10, 40 mg eow, Week 12): 62 % of Patients
- PGA “Clear” or “Almost Clear” ([1]; baseline PASI ≧10 and DLQI >10, 40 mg eow, Week 24): 69 % of Patients
- PGA “Clear” or “Almost Clear” ([1]; baseline PASI ≧10 and DLQI >10, 40 mg eow, Week 36): 65 % of Patients
- PGA “Clear” or “Almost Clear” ([1]; baseline PASI ≧10 and DLQI >10, 40 mg eow, Week 60): 54 % of Patients
- PGA “Clear” or “Almost Clear” ([1]; baseline PASI ≧10 and DLQI >10, 40 mg weekly, Week 12): 70 % of Patients
- PGA “Clear” or “Almost Clear” ([1]; baseline PASI ≧10 and DLQI >10, 40 mg weekly, Week 24): 74 % of Patients
- PGA “Clear” or “Almost Clear” ([1]; baseline PASI ≧10 and DLQI >10, 40 mg weekly, Week 36): 65 % of Patients
- PGA “Clear” or “Almost Clear” ([1]; baseline PASI ≧10 and DLQI >10, 40 mg weekly, Week 60): 52 % of Patients
- PGA “Clear” or “Almost Clear” ([1]; baseline PASI ≧10 and DLQI >10, placebo/adalimumab 40 mg eow, Week 24): 33 % of Patients
- PGA “Clear” or “Almost Clear” ([1]; baseline PASI ≧10 and DLQI >10, placebo/adalimumab 40 mg eow, Week 36): 44 % of Patients
- PGA “Clear” or “Almost Clear” ([1]; baseline PASI ≧10 and DLQI >10, placebo/adalimumab 40 mg eow, Week 60): 39 % of Patients
- PGA “Clear” or “Almost Clear” ([1]; dosage escalation group (eow to 40 mg weekly, n = 30), Week 60): 20%
- PGA “Clear”/“Almost Clear” ([1]; no prior use): 44%
- PGA “Clear”/“Almost Clear” ([1]; prior biologic use): 38%
- PGA “Clear”/“Almost Clear” ([1]; prior systemic use): 47%
- AEs leading to withdrawal, Patients (%) ([2]; First 24 weeks of OLE): 1%
- Any AE, Patients (%) ([2]; First 24 weeks of OLE): 47%
- Lymphoma, Patients (%) ([2]; First 24 weeks of OLE): 0%
- Malignancy, Patients (%) ([2]; First 24 weeks of OLE): 1%
- Non-melanoma skin cancer, Patients (%) ([2]; First 24 weeks of OLE): 0%
- Serious AE, Patients (%) ([2]; First 24 weeks of OLE): 3%
- Nasopharyngitis, Patients (%) ([2]; First 24 weeks of OLE, AEs occurring ≧5% of patients): 5%
- patients with serious adverse events ([2]; between Months 12-18): 2.6%
- patients who achieved at least PASI 50 ([3]; 40 mg weekly, Week 12): 80%
- PASI 50 response ([3]; Patient 1): non-responder
- time at which PASI 50 was achieved ([3]; Patient 2): ≤ 8 Week
- time at which PASI 75 was reached ([3]; Patient 2): 12 Week
- time at which PASI 50 was achieved ([3]; Patient 3): ≤ 4 Week
- time at which PASI 50 was achieved ([3]; Patient 4): ≤ 2 Week
- time at which PASI 75 was reached ([3]; Patient 4): 4 Week
- time at which PASI 50 was achieved ([3]; Patient 5): ≤ 12 Week
- PASI ([3]; Week 2, individual patients 1-5 (c1-c5), weekly adalimumab): 23.4 and 23.6 and 21.6 and 11.2 and 22.9
- PASI ([3]; Week 4, individual patients 1-5 (c1-c5), weekly adalimumab): 26.7 and 20.1 and 8.70 and 7.00 and 23.6
- PASI ([3]; Week 8, individual patients 1-5 (c1-c5), weekly adalimumab): 18.2 and 12.3 and 8.40 and 19.6
- PASI ([3]; Week 12, individual patients 1-5 (c1-c5), weekly adalimumab): 21.2 and 6.30 and 3.3 and 7.10 and 15.2
- % Improvement in PASI from baseline to Week 12 ([3]; individual patients 1-5 (c1-c5), weekly adalimumab): 6% and 82% and 93% and 52% and 53%
